Experimental data: PubChem BioAssay (NCI)
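Step 1: Grow cells in 96-well plates. Step 2: Expose to compound for 48 hours at 5 concentrations. Step 3: Interpolate endpoints linearly; if unreached, use highest concentration. The concentration for 50% growth inhibition is given as GI50. TGI is the concentration that stops growth completely.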

What was measured:
Test in all cases: NCI-60 cell line screen, 48 h
DU-145 prostate = test system: DU-145 prostate
HOP-62 NSCLC = test system: HOP-62 NSCLC
HT29 colon = test system: HT29 colon
MCF7 breast = test system: MCF7 breast
NCI-H226 lung = test system: NCI-H226 lung
NCI-H460 lung = test system: NCI-H460 lung
SF-268 CNS = test system: SF-268 CNS
SR leukemia = test system: SR leukemia
SW-620 colon = test system: SW-620 colon
RXF 393 renal = test system: RXF 393 renal

Row | Structure (SMILES) | GI50 (DU-145 prostate) [µM] | TGI (DU-145 prostate) [µM] | GI50 (HOP-62 NSCLC) [µM] | TGI (HOP-62 NSCLC) [µM] | GI50 (HT29 colon) [µM] | TGI (HT29 colon) [µM] | GI50 (MCF7 breast) [µM] | TGI (MCF7 breast) [µM] | GI50 (NCI-H226 lung) [µM] | TGI (NCI-H226 lung) [µM] | GI50 (NCI-H460 lung) [µM] | TGI (NCI-H460 lung) [µM] | GI50 (SF-268 CNS) [µM] | TGI (SF-268 CNS) [µM] | GI50 (SR leukemia) [µM] | TGI (SR leukemia) [µM] | GI50 (SW-620 colon) [µM] | TGI (SW-620 colon) [µM] | GI50 (RXF 393 renal) [µM] | TGI (RXF 393 renal) [µM]
1 | C[C@]12CCCN1CC1=NNC(=O)c3cc(F)cc4[nH]c2c1c34 | 32.6 | > 100 | 20.1 | 89.4 | 19.2 | > 100 | 11.6 | > 100 | 7.84 | 67.7 | 11.5 | > 100 | 19 | 61.4 | 3.57 | > 100 | 16.7 | > 100 | – | –
2 | Cc1cc2nc3c(=O)[nH]c(=O)nc-3n(CC(O)C(O)C(O)CO)c2cc1N (configuration not stated) | – | – | – | – | – | > 100 | – | – | – | > 100 | – | > 100 | – | – | – | – | – | > 100 | – | –
3 | CN1C(=O)/C(=C2\S/C(=N\c3nnc(-c4ccccc4)o3)NC2=O)c2ccccc21 | > 100 | > 100 | 68.8 | > 100 | > 100 | > 100 | 91.9 | > 100 | – | – | 65.6 | > 100 | > 100 | > 100 | – | – | > 100 | > 100 | > 100 | > 100
4 | Cc1ccc2nc(Sc3c([N+](=O)[O-])ncn3C)[nH]c2c1 | – | – | – | > 100 | – | > 100 | – | – | – | 45 | – | > 100 | – | 83.9 | – | 42.2 | – | > 100 | – | 39.5
5 | CC12CC/C(=N/NC(N)=O)C3C1CCCC32 | – | – | – | > 100 | – | > 100 | – | – | – | > 100 | – | > 100 | – | > 100 | – | > 100 | – | > 100 | – | –
6 | CC12CCCC(C#N)(C1)OC2=O (configuration not stated) | – | – | – | > 100 | – | > 100 | – | – | – | > 100 | – | > 100 | – | > 100 | – | > 100 | – | > 100 | – | > 100
7 | CCc1cccc(C)c1N1C(=O)C(=O)C(c2nc3ccccc3o2)/C(=N/NC(=S)NN)C1=O (configuration not stated) | – | – | – | > 100 | – | > 100 | – | – | – | > 100 | – | > 100 | – | > 100 | – | – | – | > 100 | – | > 100
8 | CCC1=C[C@@H]2CN(C1)Cc1c([nH]c3ccccc13)[C@@](C(=O)OC)(c1cc3c(cc1OC)N(C)[C@H]1[C@@](O)(C(=O)OC)[C@H](OC(C)=O)[C@]4(CC)C=CCN5CC[C@]31[C@@H]54)C2 | < 0.01 | < 0.01 | < 0.0148 | 24.4 | < 0.01 | > 41.6 | < 0.01 | 11.5 | < 0.0302 | 36.5 | < 0.01 | 0.444 | < 0.01 | 14.2 | < 0.01 | 1.95 | < 0.01 | 17.9 | – | –
9 | O=C1C(Cl)=C(Cl)C(=O)N1c1ccccc1Cl | – | – | – | > 100 | – | > 100 | – | – | – | > 100 | – | > 100 | – | > 100 | – | 69.7 | – | > 95 | – | > 100
10 | O=C(O)CCC(=O)Oc1ccc(O)c2c1CCCC2=O | – | – | – | > 100 | – | > 100 | – | – | – | > 100 | – | > 100 | – | > 100 | – | > 100 | – | > 100 | – | > 100
11 | CCC[CH2][Sn]1([CH2]CCC)[O]C(=O)CN=C(C)c2ccccc2[O]1 | – | – | 5.21 | > 100 | 1.66 | 3.1 | – | – | – | – | 1.79 | 3.55 | 0.306 | 1.65 | – | – | 0.413 | 1.59 | 0.222 | 0.786
12 | CN1C(c2ccccc2)CC(C)(O)CC1c1ccccc1 (configuration not stated) | – | – | – | > 100 | – | > 100 | – | – | – | > 100 | – | > 100 | – | > 100 | – | > 100 | – | > 100 | – | > 100
13 | O=C(CC(=O)N1N=C(n2ccc3ccccc32)CC1c1ccccc1)Nc1ccc(Cl)cc1 (configuration not stated) | – | – | – | > 100 | – | > 100 | – | – | – | – | – | > 100 | – | > 100 | – | – | – | > 100 | – | > 100
14 | Nc1nc(=S)c2ncn(C3OC(CO)C(O)C3O)c2[nH]1 (configuration not stated) | 0.542 | > 100 | 0.273 | 3.98 | 0.981 | > 100 | 0.389 | > 70.6 | 3.5 | > 100 | 0.571 | 12.2 | 0.755 | > 100 | – | – | 1.7 | > 100 | 34.7 | > 100
15 | N#CC(C(=O)/C(=N/NC(=O)c1ccccc1O)C(C#N)c1ccc(Br)cc1)c1ccc(Br)cc1 (configuration not stated) | – | – | – | 29.5 | – | 33.9 | – | – | – | 19.1 | – | 40 | – | – | – | – | – | 18.1 | – | 16
16 | COc1cccc(CCNC(=O)CC(c2ccccc2)(c2ccccc2)c2ccccc2)c1 | 26.8 | > 100 | 59.4 | > 100 | – | – | 21.5 | > 100 | – | – | 10.5 | > 100 | 15 | > 100 | – | – | 85.3 | > 100 | – | –
17 | COC(=O)C(=NNc1ccccc1[N+](=O)[O-])C(=O)OC | – | – | – | > 100 | – | > 100 | – | – | – | > 100 | – | > 100 | – | > 100 | – | > 100 | – | > 100 | – | > 100
18 | O=C[C@]12CC=C3OC4OC5(CCCCC5)OC4[C@H]3[C@H]1C(=O)C=CC2=O (some centres not stated) | – | – | – | > 100 | – | > 100 | – | – | – | > 100 | – | 58.7 | – | 89 | – | 7.93 | – | 38.9 | – | 25.9
19 | N.N.N.N.N.N#Cc1nn[n-]n1.[Cl-].[Co+3] | – | – | > 100 | > 100 | > 100 | > 100 | – | – | – | – | > 100 | > 100 | > 100 | > 100 | > 100 | > 100 | > 100 | > 100 | > 100 | > 100
20 | N#CCCN(C1=NN(C(=O)CC(=O)Nc2ccc(Cl)cc2)C(c2ccccc2)C1)c1ccc(Cl)cc1 (configuration not stated) | – | – | – | > 100 | – | > 100 | – | – | – | > 100 | – | > 100 | – | > 100 | – | > 100 | – | > 100 | – | > 100
